compound: CC1(COc2ccc3c(c2)ncn3-c2ccc3cccc(N4CCC(N)CC4)c3n2)COC1 [Crenolanib] + Cc1nc(NC(=O)N2CCC[C@H]2C(N)=O)sc1-c1ccnc(C(C)(C)C(F)(F)F)c1 [Alpelisib] (partner 2 µM); experiment: relative viability (nuclei count vs DMSO), 5 days (fraction); higher = more cells survive; conditions: first compound 1 µM
Outline: (§1)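 Five library-drug doses in √10 steps were combined with a fixed anchor-drug dose, or a single drug was given alone, by pin tool to lung cancer cell lines in 1536-well plates the day after seeding. Nuclei were stained and counted after 5 days. Relative viability is the nuclei count in treated wells over that in vehicle wells, taken as the median of duplicate plates.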

Compared with NCI-H1734, NCI-H2009 is higher in relative viability: 0.737 for the first, 1.07 for the second.

Compared with EPLC-272H, PC-14 is lower in relative viability: 0.938 for the first, 0.894 for the second.

First: LCLC-97TM1
Second: NCI-H596
The relative viability of the first is lower: 0.308 for the first, 0.536 for the second.

Going from NCI-H2228 to EMC-BAC-2, the relative viability rises from 0.748 to 0.771.

Going from NCI-H2087 to Calu-6, the relative viability falls from 1.17 to 1.12.

First: HCC-44
Second: NCI-H1703
The relative viability of the first is higher: 0.782 for the first, 0.151 for the second.

Going from NCI-H647 to LK-2, the relative viability falls from 1.11 to 0.997.

Compared with NCI-H2126, SK-MES-1 is higher in relative viability: 0.715 for the first, 0.95 for the second.

First: HARA
Second: COR-L23
The relative viability of the first is higher: 0.751 for the first, 0.731 for the second.

First: COR-L 105
Second: LC-2-ad
The relative viability of the first is higher: 1.02 for the first, 0.89 for the second.

First: LU99A
Second: NCI-H2170
The relative viability of the first is lower: 0.506 for the first, 0.912 for the second.

First: NCI-H3122
Second: IA-LM
The relative viability of the first is higher: 0.979 for the first, 0.854 for the second.

Going from HCC-78 to A549, the relative viability rises from 0.338 to 0.747.

Compared with LXF-289, BEN is lower in relative viability: 1.02 for the first, 0.97 for the second.

First: HCC-15
Second: HCC-827
The relative viability of the first is lower: 0.836 for the first, 0.992 for the second.

Compared with NCI-H441, LOU-NH91 is lower in relative viability: 0.792 for the first, 0.694 for the second.

Compared with NCI-H1299, NCI-H1563 is lower in relative viability: 1.05 for the first, 0.905 for the second.

Compared with HCC-366, ABC-1 is higher in relative viability: 0.406 for the first, 0.898 for the second.

compound: O=C1NC(=O)[C@@H](c2cn3c4c(cccc24)CCC3)[C@@H]1c1c[nH]c2ccccc12 [Tivantinib] + CC(=O)Nc1cccc(-n2c(=O)n(C3CC3)c(=O)c3c(Nc4ccc(I)cc4F)n(C)c(=O)c(C)c32)c1 [Trametinib] (partner 0.02 µM); experiment: as above; conditions: first compound 0.01 µM
Outline: as §1

Compared with NCI-H522, NCI-H838 is lower in relative viability: 0.859 for the first, 0.542 for the second.

Going from NCI-H1651 to NCI-H1734, the relative viability falls from 0.801 to 0.611.

Going from NCI-H2009 to EPLC-272H, the relative viability rises from 0.328 to 0.346.

First: PC-14
Second: LCLC-97TM1
The relative viability of the first is higher: 0.671 for the first, 0.211 for the second.

Going from NCI-H596 to NCI-H2228, the relative viability falls from 0.897 to 0.608.

Compared with EMC-BAC-2, NCI-H2087 is lower in relative viability: 0.907 for the first, 0.217 for the second.

First: HCC-44
Second: NCI-H647
The relative viability of the first is higher: 1.04 for the first, 0.462 for the second.

First: LK-2
Second: NCI-H2126
The relative viability of the first is higher: 0.723 for the first, 0.522 for the second.

First: NCI-H2342
Second: SK-MES-1
The relative viability of the first is higher: 0.749 for the first, 0.645 for the second.

Going from HARA to COR-L23, the relative viability falls from 0.66 to 0.634.

First: COR-L 105
Second: LC-2-ad
The relative viability of the first is lower: 0.425 for the first, 0.912 for the second.

First: LU99A
Second: ChaGo-K-1
The relative viability of the first is lower: 0.436 for the first, 0.894 for the second.

Compared with NCI-H2170, NCI-H3122 is lower in relative viability: 0.934 for the first, 0.219 for the second.

Compared with HCC-78, SW 900 is higher in relative viability: 0.761 for the first, 0.775 for the second.

Going from LXF-289 to BEN, the relative viability rises from 0.628 to 1.13.

Compared with HCC-15, HCC-827 is higher in relative viability: 0.387 for the first, 0.54 for the second.

Going from NCI-H441 to LOU-NH91, the relative viability rises from 0.476 to 0.724.

First: HCC-366
Second: NCI-H1650
The relative viability of the first is lower: 0.355 for the first, 0.451 for the second.

same assay, conditions: first compound 0.03162 µM

First: NCI-H522
Second: NCI-H838
The relative viability of the first is higher: 0.605 for the first, 0.501 for the second.

Compared with NCI-H1651, NCI-H1734 is lower in relative viability: 0.798 for the first, 0.676 for the second.

Compared with NCI-H2009, EPLC-272H is higher in relative viability: 0.246 for the first, 0.27 for the second.

Going from PC-14 to LCLC-97TM1, the relative viability falls from 0.811 to 0.218.

First: NCI-H596
Second: NCI-H2228
The relative viability of the first is higher: 0.839 for the first, 0.396 for the second.

Compared with EMC-BAC-2, NCI-H2087 is lower in relative viability: 0.934 for the first, 0.184 for the second.

First: HCC-44
Second: NCI-H647
The relative viability of the first is higher: 1.11 for the first, 0.411 for the second.

Compared with LK-2, NCI-H2126 is higher in relative viability: 0.454 for the first, 0.549 for the second.

First: NCI-H2342
Second: SK-MES-1
The relative viability of the first is higher: 0.764 for the first, 0.511 for the second.

Going from HARA to COR-L23, the relative viability falls from 0.633 to 0.558.

Compared with COR-L 105, LC-2-ad is higher in relative viability: 0.412 for the first, 0.879 for the second.

First: LU99A
Second: ChaGo-K-1
The relative viability of the first is lower: 0.494 for the first, 0.88 for the second.

First: NCI-H2170
Second: NCI-H3122
The relative viability of the first is higher: 0.847 for the first, 0.216 for the second.

First: HCC-78
Second: SW 900
The relative viability of the first is higher: 0.696 for the first, 0.649 for the second.

Going from LXF-289 to BEN, the relative viability rises from 0.631 to 0.94.

First: HCC-15
Second: NCI-H1648
The relative viability of the first is lower: 0.371 for the first, 0.505 for the second.

Going from HCC-827 to NCI-H441, the relative viability falls from 0.576 to 0.405.

First: LOU-NH91
Second: HCC-366
The relative viability of the first is higher: 0.762 for the first, 0.523 for the second.

In the case of NCI-H1650, the relative viability is reported as 0.663.

same assay, conditions: first compound 0.1 µM

Compared with NCI-H522, NCI-H838 is lower in relative viability: 0.815 for the first, 0.469 for the second.

Compared with NCI-H1651, NCI-H1734 is lower in relative viability: 0.825 for the first, 0.677 for the second.

Compared with NCI-H2009, EPLC-272H is lower in relative viability: 0.273 for the first, 0.265 for the second.

First: PC-14
Second: LCLC-97TM1
The relative viability of the first is higher: 0.753 for the first, 0.189 for the second.

Going from NCI-H596 to NCI-H2228, the relative viability falls from 0.774 to 0.494.

Compared with EMC-BAC-2, NCI-H2087 is lower in relative viability: 0.879 for the first, 0.227 for the second.

Compared with HCC-44, NCI-H647 is lower in relative viability: 1.02 for the first, 0.416 for the second.

Compared with LK-2, NCI-H2126 is lower in relative viability: 0.683 for the first, 0.573 for the second.

First: NCI-H2342
Second: SK-MES-1
The relative viability of the first is higher: 0.782 for the first, 0.521 for the second.

First: HARA
Second: COR-L23
The relative viability of the first is higher: 0.776 for the first, 0.545 for the second.

First: COR-L 105
Second: LC-2-ad
The relative viability of the first is lower: 0.455 for the first, 0.851 for the second.

Going from LU99A to ChaGo-K-1, the relative viability rises from 0.505 to 0.867.

First: NCI-H2170
Second: NCI-H3122
The relative viability of the first is higher: 0.844 for the first, 0.199 for the second.

First: HCC-78
Second: SW 900
The relative viability of the first is lower: 0.589 for the first, 0.734 for the second.

Compared with LXF-289, BEN is higher in relative viability: 0.628 for the first, 1.01 for the second.

First: HCC-15
Second: NCI-H1648
The relative viability of the first is higher: 0.36 for the first, 0.343 for the second.

Compared with HCC-827, NCI-H441 is lower in relative viability: 0.461 for the first, 0.448 for the second.

First: LOU-NH91
Second: HCC-366
The relative viability of the first is higher: 0.81 for the first, 0.338 for the second.

NCI-H1650 was tested, and the relative viability was 0.666.

same assay, conditions: first compound 0.3162 µM

First: NCI-H522
Second: NCI-H838
The relative viability of the first is higher: 0.645 for the first, 0.527 for the second.

First: NCI-H1651
Second: NCI-H1734
The relative viability of the first is higher: 0.787 for the first, 0.604 for the second.

Compared with NCI-H2009, EPLC-272H is lower in relative viability: 0.238 for the first, 0.227 for the second.

First: PC-14
Second: LCLC-97TM1
The relative viability of the first is higher: 0.452 for the first, 0.178 for the second.

First: NCI-H596
Second: NCI-H2228
The relative viability of the first is higher: 0.678 for the first, 0.227 for the second.

Cell Line EMC-BAC-2 has a relative viability of 0.868.
